Data from patent publication US8420657B2 (Novartis AG, priority 2008, dated 2013).

What follows are molecules tested against T1, GST-JAK2(808-1132) (Homo sapiens, UniProt O60674) (assay: JAK2 kinase assay (Caliper mobility shift, LabChip 3000)).
T1 construct: GST-JAK2(808-1132); purchased Invitrogen (Carlsbad, USA) #4288
Type: biochemical
Text: All four kinases of the JAK/TYK-kinase family were used as purified recombinant GST-fusion proteins, containing the active kinase domains. GST-JAK1 (866-1154), GST-JAK3(811-1124), and GST-TYK2(888-1187) were expressed and purified by affinity chromatography at the EPK biology unit. GST-JAK2(808-1132) was purchased from Invitrogen (Carlsbad, USA, #4288).
The kinase assays were based on the Caliper mobility shift assay using the LabChip 3000 systems. This technology is similar to capillary electrophoresis and uses charge driven separation of substrate and product in a microfluidic chip.
All kinase reactions were performed in 384 well microtiter plates in a total reaction volume of 18 μl. The assay plates were prepared with 0.1 μl per well of test compound in the appropriate test concentration, as described under the section “preparation of compound dilutions”. The reactions were started by combining 9 μl of substrate mix (consisting of peptide and ATP) with 9 μl of kinase dilution. The reactions were incubated for 60 minutes at 30° C. and stopped by adding 70 μl of stop buffer (100 mM Hepes, 5% DMSO, 0.1% Coating reagent, 10 mM EDTA, 0.015% Brij 35).
Fluorescently labeled synthetic peptides were used as substrates in all reactions. A peptide derived from the sequence of IRS-1(IRS-1 peptide, SEQ ID NO: 1 FITC-Ahx-KKSRGDYMTMQIG-NH2) was used for JAK1 and TYK2 and a peptide named JAK3tide SEQ ID NO: 2 (FITC-GGEEEEYFELVKKKK-NH2) for JAK2 and JAK3. Specific assay conditions are described in Table1:
The terminated reactions were transferred to the Caliper LabChip 3000 reader and the turnover of each reaction was measured by determining the substrate/product ratio.
Test compounds were dissolved in DMSO (10 mM) and transferred into 1.4 mL flat bottom or V-shaped Matrix tubes carrying a unique 2D matrix chip by individual compound hubs. The numbers of these chips were distinctively linked to the individual compound identification numbers. The stock solutions were stored at −20° C. if not used immediately. For the test procedure the vials were defrosted and identified by a scanner whereby a working sheet was generated that guided the subsequent working steps. Compound dilutions were made in 96 well plates. This format enabled the assay of maximally 40 individual test compounds at 8 concentrations (single points) including 4 reference compounds. The dilution protocol included the production of pre-dilution plates, master plates and assay plates:
Pre-dilution plates: 96 polypropylene well plates were used as pre-dilution plates. A total of 4 pre-dilution plates were prepared including 10 test compounds each on the plate positions A1-A10, one standard compound at A11 and one DMSO control at A12. All dilution steps were done on a HamiltonSTAR robot.
Master plates: 100 μL of individual compound dilutions including standard compound and controls of the 4 “pre-dilution plates” were transferred into a 384 “master plate” including the following concentrations 1,820, […], 182, 54.6, 18.2, 5.46, 1.82 and 0.546 μM, respectively in 90% of DMSO.
Assay plates: Identical assay plates were then prepared by pipetting 100 nL each of compound dilutions of the master plates into 384-well “assay plates”. In the following the compounds were mixed with 9 μL of assays components plus 9 μL enzyme corresponding to a 1:181 dilution steps enabling the final concentration of 10, 3.0, 1.0, 0.3, 0.1, 0.03, 0.01 and 0.003 μM, respectively. The preparation of the master plates were handled by the Matrix PlateMate Plus robot and replication of assay plates by the HummingBird robot.

T1 sequence (O60674 808-1132): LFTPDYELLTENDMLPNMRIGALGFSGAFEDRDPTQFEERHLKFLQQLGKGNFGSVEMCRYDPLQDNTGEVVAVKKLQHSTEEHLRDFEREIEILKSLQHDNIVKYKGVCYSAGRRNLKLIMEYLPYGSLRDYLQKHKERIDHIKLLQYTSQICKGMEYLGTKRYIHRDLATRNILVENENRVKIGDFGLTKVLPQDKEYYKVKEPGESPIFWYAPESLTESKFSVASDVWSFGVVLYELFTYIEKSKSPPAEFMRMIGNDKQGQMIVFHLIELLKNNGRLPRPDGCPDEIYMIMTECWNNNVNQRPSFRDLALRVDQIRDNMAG

SMILES	IC50 [nM]
CS(=O)(=O)c1ccc(-n2ccc3cnc(Nc4ccc5c(c4)OCO5)nc32)cc1 [Example 15, Benzo[1,3]dioxol-5-yl-[7-(4-methanesulfonyl-phenyl)-7H-pyrrolo[2,3-d]pyrimidin-2-yl]-amine]	8.5
Cc1ccc(Nc2ncc3ccn(-c4cc(F)c(CN5CCOCC5)c(F)c4)c3n2)cc1CN1CCC2(CCN(C)C2)C1 (stereo not shown) [Example 450, [7-(3,5-Difluoro-4-morpholin-4-ylmethyl-phenyl)-7H-pyrrolo[2,3-d]pyrimidin-2-yl]-[4-methyl-3-(7-methyl-2,7-diaza-spiro[4.4]non-2-ylmethyl)-phenyl]-amine]	≤ 3
CC(C)(C)OC(=O)N1CCN(Cc2ccc(Nc3ncc4ccn(-c5ccc(S(C)(=O)=O)cc5)c4n3)cc2)CC1 [Example 45, 4-{4-[7-(4-Methanesulfonyl-phenyl)-7H-pyrrolo[2,3-d]pyrimidin-2-ylamino]-benzyl}-piperazine-1-carboxylic acid tert-butyl ester]	6.1
CN1CCN(Cc2ccc(Nc3ncc4ccn(-c5cc(F)c(CN6CCOCC6)c(F)c5)c4n3)cc2C(F)(F)F)CC1 [Example 200, [7-(3,5-Difluoro-4-morpholin-4-ylmethyl-phenyl)-7H-pyrrolo[2,3-d]pyrimidin-2-yl]-[4-(4-methyl-piperazin-1-ylmethyl)-3-trifluoromethyl-phenyl]-amine]	3.7
COc1ccc(Nc2ncc3ccn(-c4ccc(S(C)(=O)=O)cc4)c3n2)cc1 [Example 20, [7-(4-Methanesulfonyl-phenyl)-7H-pyrrolo[2,3-d]pyrimidin-2-yl]-(4-methoxy-phenyl)-amine]	3.9
Fc1cc(-n2ccc3cnc(Nc4ccccn4)nc32)cc(F)c1CN1CCOCC1 [Example 209, [7-(3,5-Difluoro-4-morpholin-4-ylmethyl-phenyl)-7H-pyrrolo[2,3-d]pyrimidin-2-yl]-pyridin-2-yl-amine]	125
Cc1ccc(Nc2ncc3ccn(-c4cc(F)c(CN5CCOCC5)c(F)c4)c3n2)cc1Cn1cc(CCO)cn1 [Example 467, 2-(1-{5-[7-(3,5-Difluoro-4-morpholin-4-ylmethyl-phenyl)-7H-pyrrolo[2,3-d]pyrimidin-2-ylamino]-2-methyl-benzyl}-1H-pyrazol-4-yl)-ethanol]	4.6
Cc1cnn(Cc2cc(Nc3ncc4ccn(-c5cc(F)c(CN6CCOCC6)c(F)c5)c4n3)ccc2C)c1 [Example 481, [7-(3,5-Difluoro-4-morpholin-4-ylmethyl-phenyl)-7H-pyrrolo[2,3-d]pyrimidin-2-yl]-[4-methyl-3-(4-methyl-pyrazol-1-ylmethyl)-phenyl]-amine]	5.1
CCN1CCN(Cc2ccc(Nc3ncc4ccn(-c5ccc(S(C)(=O)=O)cc5)c4n3)nc2)CC1 [Example 317, [5-(4-Ethyl-piperazin-1-ylmethyl)-pyridin-2-yl]-[7-(4-methanesulfonyl-phenyl)-7H-pyrrolo[2,3-d]pyrimidin-2-yl]-amine]	940
O=S1(=O)CCN(Cc2c(F)cc(-n3ccc4cnc(Nc5ccnc(N6CCNC7(CC7)C6)c5)nc43)cc2F)CC1 [Example 442]	≤ 3
O=C(c1ccc(-n2ccc3cnc(Nc4ccc(C(F)(F)F)nc4)nc32)cc1)N1CCOCC1 [Example 236, Morpholin-4-yl-{4-[2-(6-trifluoromethyl-pyridin-3-ylamino)-pyrrolo[2,3-d]pyrimidin-7-yl]-phenyl}-methanone]	46

The remaining lines, values ahead:

IC50 [nM]	SMILES
< 3	CN1CCN(c2ccc(Nc3ncc4ccn(-c5ccc(S(C)(=O)=O)cc5)c4n3)cc2)CC1 [Example 18, [7-(4-Methanesulfonyl-phenyl)-7H-pyrrolo[2,3-d]pyrimidin-2-yl]-[4-(4-methyl-piperazin-1-yl)-phenyl]-amine]
3.2	Cc1ccc(Nc2ncc3ccn(-c4ccc(S(N)(=O)=O)cc4)c3n2)cc1CN1CCN(C)CC1 [Example 368, 4-{2-[4-Methyl-3-(4-methyl-piperazin-1-ylmethyl)-phenylamino]-pyrrolo[2,3-d]pyrimidin-7-yl}-benzenesulfonamide]
< 3	O=C(c1c(F)cc(-n2ccc3cnc(Nc4ccc(CN5CCNCC5)cc4)nc32)cc1F)N1CCOCC1 [Example 314, {2,6-Difluoro-4-[2-(4-piperazin-1-ylmethyl-phenylamino)-pyrrolo[2,3-d]pyrimidin-7-yl]-phenyl}-morpholin-4-yl-methanone]
< 3	COc1ccc(Nc2ncc3ccn(-c4ccc(S(C)(=O)=O)cc4)c3n2)cc1OCCN(C)C [Example 26, [3-(2-Dimethylamino-ethoxy)-4-methoxy-phenyl]-[7-(4-methanesulfonyl-phenyl)-7H-pyrrolo[2,3-d]pyrimidin-2-yl]-amine]
< 3	CC(=O)N1CCN(Cc2ccc(Nc3ncc4ccn(-c5ccc(C(=O)N6CCOCC6)c(F)c5)c4n3)cc2)CC1 [Example 322, 1-[4-(4-{7-[3-Fluoro-4-(morpholine-4-carbonyl)-phenyl]-7H-pyrrolo[2,3-d]pyrimidin-2-ylamino}-benzyl)-piperazin-1-yl]-ethanone]
< 3	CN1CCN(Cc2ccc(Nc3ncc4ccn(-c5cc(F)c(C(=O)N6CCOCC6)c(F)c5)c4n3)cc2C(F)(F)F)CC1 [Example 204, (2,6-Difluoro-4-{2-[4-(4-methyl-piperazin-1-ylmethyl)-3-trifluoromethyl-phenylamino]-pyrrolo[2,3-d]pyrimidin-7-yl}-phenyl)-morpholin-4-yl-methanone]
< 3	COc1ccc(Nc2ncc3ccn(-c4ccc(S(C)(=O)=O)cc4)c3n2)cc1N1CCN(C)CC1 [Example 25, [7-(4-Methanesulfonyl-phenyl)-7H-pyrrolo[2,3-d]pyrimidin-2-yl]-[4-methoxy-3-(4-methyl-piperazin-1-yl)-phenyl]-amine]
23	CN1CCN(c2ccc(Nc3ncc4ccn(-c5ccc(N6CCCC6=O)cc5)c4n3)cn2)CC1 [Example 283, 1-(4-{2-[6-(4-Methyl-piperazin-1-yl)-pyridin-3-ylamino]-pyrrolo[2,3-d]pyrimidin-7-yl}-phenyl)-pyrrolidin-2-one]
< 3	CN1CCN2c3ccc(Nc4ncc5ccn(-c6ccc(S(C)(=O)=O)cc6)c5n4)cc3COCC2C1 (stereo not shown) [Example 12, [7-(4-Methanesulfonyl-phenyl)-7H-pyrrolo[2,3-d]pyrimidin-2-yl]-(3-methyl-1,2,3,4,4a,5-hexahydro-7H-6-oxa-3,11b-diaza-dibenzo[a,c]cyclohepten-9-yl)-amine]
3.3	CC(C)(C)NS(=O)(=O)c1ccc(-n2ccc3cnc(Nc4ccc(CN5CCN(C6CC6)CC5)cc4)nc32)cc1 [Example 345, N-tert-Butyl-4-{2-[4-(4-cyclopropyl-piperazin-1-ylmethyl)-phenylamino]-pyrrolo[2,3-d]pyrimidin-7-yl}-benzenesulfonamide]
4	CN1CCN(C(=O)c2ccc(Nc3ncc4ccn(-c5ccc(S(C)(=O)=O)cc5)c4n3)cc2)CC1 [Example 28, {4-[7-(4-Methanesulfonyl-phenyl)-7H-pyrrolo[2,3-d]pyrimidin-2-ylamino]-phenyl}-(4-methyl-piperazin-1-yl)-methanone]
< 3	CCN1CCN(c2ccc(Nc3ncc4ccn(-c5ccc(CN6CCOCC6)c(F)c5)c4n3)cc2C)CC1 [Example 285, [4-(4-Ethyl-piperazin-1-yl)-3-methyl-phenyl]-[7-(3-fluoro-4-morpholin-4-ylmethyl-phenyl)-7H-pyrrolo[2,3-d]pyrimidin-2-yl]-amine]
4	CC(O)c1ccc(-n2ccc3cnc(Nc4ccc(N5CCN(C)CC5)nc4)nc32)cc1 (stereo not shown) [Example 279, 1-(4-{2-[6-(4-Methyl-piperazin-1-yl)-pyridin-3-ylamino]-pyrrolo[2,3-d]pyrimidin-7-yl}-phenyl)-ethanol]
4.5	CN1CCN(Cc2ccc(Nc3ncc4ccn(-c5ccc(S(C)(=O)=O)cc5)c4n3)cc2)CC1 [Example 38, [7-(4-Methanesulfonyl-phenyl)-7H-pyrrolo[2,3-d]pyrimidin-2-yl]-[4-(4-methyl-piperazin-1-ylmethyl)-phenyl]-amine]
